Drawing on PubChem BioAssay (NCI), this text covers TGI for 15 compounds.

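48-hour exposure; five concentrations; linearly interpolated endpoints. At the TGI there is no net growth.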

What all share (experiment): inhibition of tumour cell growth, NCI panel, 48 h
Assay [1] has as its system HT29 colon.
Assay [2] has as its system NCI-H23 lung.
Assay [3] deals with NCI-H460 lung.
The test system of assay [4] is OVCAR-4 ovarian.
The subject of assay [5] is SF-539 CNS.
The subject of assay [6] is SK-MEL-2 melanoma.
The test system of assay [7] is SK-MEL-28 melanoma.
The subject of assay [8] is SW-620 colon.
Assay [9] deals with UACC-257 melanoma.

As to `c1ccc(OCc2nnc3n2N=C(c2ccccc2)CS3)cc1`, the TGI in assay [1], in [2], in [3], in assay [4], in [5] and in [6] was greater than 100 µM in each case. In addition, the TGI in assay [7], in assay [8] and in assay [9] was greater than 100 µM each time.

For `COc1ccc(NC(=O)CC(=O)n2nc(C)c(N=Nc3ccccc3C(=O)O)c2C)cc1`, the TGI in [1], in [2], in assay [3], in assay [4], in [5] and in [6] was greater than 100 µM each time. The TGI in [7], in assay [8] and in assay [9] was greater than 100 µM throughout.

Consider `CC(=O)NC(C=O)C(O[C@H](C)C(=O)NC(C)C(=O)NC(CCC(N)=O)C(=O)OCc1ccccc1)C(O)C(O)COC(=O)CCNc1c2ccccc2nc2cccc([N+](=O)[O-])c12` (stereo not given in full), for which the TGI is 7.88 µM in assay [1]; 9.45 µM in assay [2]; 3.44 µM in assay [3]; 25.3 µM in assay [4]; 20.2 µM in assay [5]; 3.05 µM in assay [6]. Further, the TGI came out at 11.6 µM in assay [7], 7.44 µM in assay [8] and 20.3 µM in assay [9].

Consider `CCCCCCCCCCCc1c(O)c(=O)c2c(oc3c(=O)c(CCCCCCCCCCC)c(O)c(=O)c3n2-c2ccc(N(C)C)cc2)c1=O`, for which the TGI in [1] is 46.8 µM; in assay [2], 47.1 µM; in assay [3], 36.1 µM; in assay [4], 30.7 µM; in [5] it was 39.7 µM; in assay [6], 50.4 µM. Further, the TGI in assay [7] was 40 µM; in assay [8], 68.6 µM; in assay [9] it was 40.2 µM.

Turning to `O=c1[nH]cnc2c(COCCO)c[nH]c12`, the TGI in assay [1], in assay [2], in assay [3], in assay [4], in assay [5] and in [6] was greater than 100 µM each time. Moreover, the TGI in assay [7], in assay [8] and in [9] was greater than 100 µM in each case.

For `Cc1c2c(c(C)c3c1[nH]c1ccccc13)CN(C)CC2`, the TGI in [1] is 36.3 µM; in assay [2], 56.3 µM; in assay [3] it was 35.5 µM; in assay [4], greater than 100 µM; in assay [5], 27.6 µM; in assay [6], 31.1 µM. Moreover, the TGI in assay [7] was found to be 36.2 µM; in assay [8], 28.6 µM; in [9] it was 31.4 µM.

Take `CC(=O)c1ccc(NC(=O)C(=O)C(C#N)CC(C)(C)C=O)cc1` (stereo not given): the TGI in assay [1], in assay [2], in assay [3], in assay [4], in [5] and in assay [6] was greater than 100 µM throughout. The TGI in [7], in assay [8] and in [9] was greater than 100 µM each time.

With `CCC1(CN(C)C)CC/C(=C\c2ccc(OC)c(OC)c2)C1=O` (stereo not given), the TGI in assay [1], in assay [2], in assay [3], in [4], in assay [5] and in assay [6] was greater than 100 µM in each case. In addition, the TGI in [7], in assay [8] and in assay [9] was greater than 100 µM throughout.

Regarding `NC(=O)CC(N=Cc1nc(-c2ccccc2)oc1O)C(=O)O` (stereo not given), the TGI in assay [1], in [2], in assay [3], in [4], in assay [5] and in assay [6] was greater than 100 µM throughout. Besides, the TGI in assay [7], in assay [8] and in assay [9] was greater than 100 µM each time.

As to `Cc1ccc(NC(=O)CCc2n[nH]c(=S)o2)cc1`, the TGI in assay [1], in assay [2], in [3], in [4], in assay [5] and in [7] was greater than 100 µM each time. In addition, the TGI in assay [8] and in assay [9] was greater than 100 µM throughout.

`COc1cccc(SSc2cccc(OC)c2C(=O)O)c1C(=O)O`: the TGI in [1], in assay [2], in assay [3], in assay [4], in assay [5] and in [6] was greater than 100 µM each time. For the same compound, the TGI in assay [7], in [8] and in [9] was greater than 100 µM throughout.

In the case of `N#CC1=C(O)NC(O)=C(C#N)C1c1ccc(C2C(C#N)=C(O)NC(O)=C2C#N)cc1`, the TGI in assay [1], in assay [2], in assay [3], in assay [4], in assay [5] and in assay [6] was greater than 100 µM in each case. Moreover, the TGI in assay [7], in assay [8] and in assay [9] was greater than 100 µM in each case.

For `COC(=O)Cc1cc(=O)[nH]c2c1C(=O)CCC2`, the TGI in assay [1], in assay [2], in assay [3], in assay [5], in [6] and in [7] was greater than 100 µM in each case. The TGI in assay [8] and in assay [9] was greater than 100 µM each time.

For the compound `Cc1ccc(S(=O)(=O)N/N=C/C(C)C)cc1`, the TGI in [1], in assay [2], in [3], in [4], in assay [5] and in assay [6] was greater than 100 µM in each case. Moreover, the TGI in assay [8] and in [9] was greater than 100 µM throughout.

For the compound `O=C1CCCCC12CCC/C2=N\O` (stereo not given), the TGI in [3], in [4], in assay [5], in assay [6], in [7] and in assay [8] was greater than 100 µM each time. In addition, the TGI in assay [9] was greater than 100 µM.
